Source: US20150274719A1, “AMINO-SUBSTITUTED IMIDAZO[1,2-A]PYRIDINECARBOXAMIDES AND THEIR USE” (BAYER PHARMA AKTIENGESELLSCHAFT, priority 2012, published 2015)
Counter-ions that a name gives are not always drawn.

Biological target: T1, recombinant guanylate cyclase reporter cell line (Rattus norvegicus, UniProt P19686+P20595)
T1 construct: expressed in transfected cells; host or cells: recombinant reporter cell line
T1 sequence (P19686 1-690): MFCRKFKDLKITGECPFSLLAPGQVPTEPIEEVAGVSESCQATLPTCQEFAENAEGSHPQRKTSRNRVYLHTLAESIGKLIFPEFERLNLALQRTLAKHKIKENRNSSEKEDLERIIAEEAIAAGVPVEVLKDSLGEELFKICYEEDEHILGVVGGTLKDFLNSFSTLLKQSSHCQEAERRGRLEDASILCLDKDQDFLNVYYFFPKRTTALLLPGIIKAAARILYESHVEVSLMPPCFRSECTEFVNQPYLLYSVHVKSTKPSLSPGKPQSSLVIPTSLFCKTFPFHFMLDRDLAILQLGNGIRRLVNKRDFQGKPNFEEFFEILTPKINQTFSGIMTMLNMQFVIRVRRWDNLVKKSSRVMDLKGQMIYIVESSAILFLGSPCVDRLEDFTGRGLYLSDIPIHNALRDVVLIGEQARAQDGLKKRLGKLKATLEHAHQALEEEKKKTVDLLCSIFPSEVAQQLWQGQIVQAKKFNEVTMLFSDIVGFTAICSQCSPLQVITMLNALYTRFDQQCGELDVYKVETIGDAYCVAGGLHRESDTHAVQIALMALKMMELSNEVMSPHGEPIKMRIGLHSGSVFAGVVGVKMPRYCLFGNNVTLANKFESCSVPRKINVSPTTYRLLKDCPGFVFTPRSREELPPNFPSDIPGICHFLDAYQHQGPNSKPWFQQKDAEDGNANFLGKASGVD
T1 sequence (P20595 1-619): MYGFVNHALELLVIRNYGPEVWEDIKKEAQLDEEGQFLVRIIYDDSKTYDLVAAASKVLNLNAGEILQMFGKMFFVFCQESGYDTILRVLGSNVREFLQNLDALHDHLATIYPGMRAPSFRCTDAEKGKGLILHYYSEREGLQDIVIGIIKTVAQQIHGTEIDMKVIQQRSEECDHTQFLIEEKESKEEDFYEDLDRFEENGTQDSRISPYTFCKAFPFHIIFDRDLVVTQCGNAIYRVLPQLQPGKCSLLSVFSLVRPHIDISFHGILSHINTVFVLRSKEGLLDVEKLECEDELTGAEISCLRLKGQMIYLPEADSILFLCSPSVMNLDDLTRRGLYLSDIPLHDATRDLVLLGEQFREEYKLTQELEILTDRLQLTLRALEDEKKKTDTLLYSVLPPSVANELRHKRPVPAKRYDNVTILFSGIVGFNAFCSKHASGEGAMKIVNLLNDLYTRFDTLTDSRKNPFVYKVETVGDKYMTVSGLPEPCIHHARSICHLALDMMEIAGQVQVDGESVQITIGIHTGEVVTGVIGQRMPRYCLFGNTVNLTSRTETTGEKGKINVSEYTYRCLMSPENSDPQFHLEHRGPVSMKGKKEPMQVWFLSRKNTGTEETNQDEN
Experiment: Action on recombinant guanylate cyclase reporter cell line
Type: cell-based
Settings: in some cases mean values from individual determinations
In short: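 Each compound is applied to a cell line engineered with a reporter for recombinant guanylate cyclase. The minimal effective concentration is then noted, in part as a mean across separate determinations.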

First: Cc1cc(OCc2c(F)cccc2F)c2nc(C)c(C(=O)NCC(N)C#N)n2c1 (single isomer, unassigned; enantiomer a) [Example 401, ent-N-(2-amino-2-cyanoethyl)-8-[(2,6-difluorobenzyl)oxy]-2,6-dimethylimidazo[1,2-a]pyridine-3-carboxamide (Enantiomer A)]
Second: Cc1cc(OCc2c(F)cccc2F)c2nc(C)c(C(=O)NCC(N)C(C)C)n2c1 (single isomer, unassigned) [Example 224, ent-N-(2-Amino-3-methylbutyl)-8-[(2,6-difluorobenzyl)oxy]-2,6-dimethylimidazo[1,2-a]pyridine-3-carboxamide]
The “MEC (minimal effective concentration)” value of the first is 3.3-fold higher: 1.00 µM for the first, 0.30 µM for the second.

`Cc1nc2c(OCc3c(F)cccc3F)cccn2c1C(=O)NC12CNCCC1C2` (racemic) [Example 125, rac-N-(3-Azabicyclo[4.1.0]hept-1-yl)-8-[(2,6-difluorobenzyl)oxy]-2-methylimidazo[1,2-a]-pyridine-3-carboxamide] and `Cc1nc2c(OCc3c(F)cccc3F)cccn2c1C(=O)NC1CCCN(C)C1` (racemic) [Example 84, rac-8-[(2,6-difluorobenzyl)oxy]-2-methyl-N-(1-methylpiperidin-3-yl)imidazo[1,2-a]-pyridine-3-carboxamide] are the same in “MEC (minimal effective concentration)” value: 1.00 µM for the first, 1.00 µM for the second.

Compared with `Cc1cc(OCc2c(F)cccc2F)c2nc(C)c(C(=O)NC3CNCC3F)n2c1` (racemic) [Example 347, rac-8-[(2,6-Difluorobenzyl)oxy]-N-(4-fluoropyrrolidin-3-yl)-2,6-dimethylimidazo[1,2-a]pyridine-3-carboxamide], `Cc1cc(OCc2c(F)cccc2F)c2nc(C)c(C(=O)NCC(N)C#N)n2c1` (single isomer, unassigned; enantiomer b) [Example 402, ent-N-(2-amino-2-cyanoethyl)-8-[(2,6-difluorobenzyl)oxy]-2,6-dimethylimidazo[1,2-a]pyridine-3-carboxamide (Enantiomer B)] is 3.3-fold lower in “MEC (minimal effective concentration)” value: 1.00 µM for the first, 0.30 µM for the second.

Going from `C#Cc1cc(OCc2c(F)cccc2F)c2nc(C)c(C(=O)NCC(C)(N)CCC)n2c1` (stereo not drawn) [Example 355, ent-N-(2-amino-2-methylpentyl)-8-[(2,6-difluorobenzyl)oxy]-6-ethynyl-2-methylimidazo[1,2-a]pyridine-3-carboxamide Formate] to `CCCC(C)(N)CNC(=O)c1c(C)nc2c(OCc3c(F)cccc3F)cc(CF)cn12` (stereo not drawn) [Example 403, ent-N-(2-amino-2-methylpentyl)-8-[(2,6-difluorobenzyl)oxy]-6-(fluoromethyl)-2-methylimidazo[1,2-a]pyridine-3-carboxamide], the “MEC (minimal effective concentration)” value falls from 0.30 µM to 0.10 µM (3-fold).

Compared with `Cc1cc(OCc2c(F)cccc2F)c2nc(C)c(C(=O)NCC(C)(N)COc3ccc(F)c(F)c3)n2c1` (racemic) [Example 350, rac-N-[2-amino-3-(3,4-difluorophenoxy)-2-methylpropyl]-8-[(2,6-difluorobenzyl)oxy]-2,6-dimethylimidazo[1,2-a]pyridine-3-carboxamide], `COCC(C)(N)CNC(=O)c1c(C)nc2c(OCc3c(F)cccc3F)cc(C)cn12` (single isomer, unassigned) [Example 198, ent-N-(2-Amino-3-methoxy-2-methylpropyl)-8-[(2,6-difluorobenzyl)oxy]-2,6-dimethylimidazo-[1,2-a]pyridine-3-carboxamide] is 3.3-fold lower in “MEC (minimal effective concentration)” value: 1.00 µM for the first, 0.30 µM for the second.

Compared with `Cc1cc(OCc2c(F)cccc2F)c2nc(C)c(C(=O)NCC(C)(N)CO)n2c1` (single isomer, unassigned; enantiomer b) [Example 269, ent-N-(2-Amino-3-hydroxy-2-methylpropyl)-8-[(2,6-difluorobenzyl)oxy]-2,6-dimethylimidazo-[1,2-a]pyridine-3-carboxamide (Enantiomer B)], `Cc1nc2c(OCc3c(F)cccc3F)cccn2c1C(=O)NCC(C)(N)CO` (racemic) [Example 273, rac-N-(2-Amino-3-hydroxy-2-methylpropyl)-8-[(2,6-difluorobenzyl)oxy]-2-methylimidazo[1,2-a]-pyridine-3-carboxamide] is 1.5-fold higher in “MEC (minimal effective concentration)” value: 0.65 µM for the first, 1.00 µM for the second.

First: Cc1nc2c(OCc3c(F)cccc3F)cc(Cl)cn2c1C(=O)NCC(C)(N)C(F)(F)F (racemic) [Example 236, rac-N-(2-Amino-3,3,3-trifluoro-2-methylpropyl)-6-chloro-8-[(2,6-difluorobenzyl)oxy]-2-methyl-imidazo[1,2-a]pyridine-3-carboxamide]
Second: Cc1nc2c(OCc3c(F)cccc3F)cc(Cl)cn2c1C(=O)NCCNC(C)C [Example 149, 6-chloro-8-[(2,6-difluorobenzyl)oxy]-N-[2-(isopropylamino)ethyl]-2-methylimidazo[1,2-a]-pyridine-3-carboxamide]
The “MEC (minimal effective concentration)” value of the first is 3.3-fold lower: 0.30 µM for the first, 1.00 µM for the second.

`Cc1nc2c(OCc3c(F)cccc3F)cccn2c1C(=O)NCC(C)CN` (single isomer, unassigned) [Example 95, ent-N-(3-Amino-2-methylpropyl)-8-[(2,6-difluorobenzyl)oxy]-2-methylimidazo[1,2-a]pyridine-3-carboxamide dihydrochloride] and `Cc1nc2c(OCc3c(F)cccc3F)cccn2c1C(=O)NC(C)CN` (single isomer, unassigned) [Example 20, ent-N-(1-Aminopropan-2-yl)-8-[(2,6-difluorobenzyl)oxy]-2-methylimidazo[1,2-a]pyridine-3-carboxamide] are the same in “MEC (minimal effective concentration)” value: 1.00 µM for the first, 1.00 µM for the second.

Compared with `Cc1nc2c(OCc3c(F)cccc3F)cccn2c1C(=O)NCC1NCCc2ccccc21` (racemic) [Example 80, rac-8-[(2,6-difluorobenzyl)oxy]-2-methyl-N-(1,2,3,4-tetrahydroisoquinolin-1-ylmethyl)-imidazo[1,2-a]pyridine-3-carboxamide], `Cc1nc2c(OCc3c(F)cccc3F)cccn2c1C(=O)NC(CN)c1ccccc1` (single isomer, unassigned; enantiomer b) [Example 18, ent-N-(2-Amino-1-phenylethyl)-8-[(2,6-difluorobenzyl)oxy]-2-methylimidazo[1,2-a]pyridine-3-carboxamide (Enantiomer B)] is 1.8-fold lower in “MEC (minimal effective concentration)” value: 1.00 µM for the first, 0.55 µM for the second.

`CC=CCC(N)CNC(=O)c1c(C)nc2c(OCc3c(F)cccc3F)cc(C)cn12` (racemic) [Example 406, rac-N-[(4E/Z)-2-aminohex-4-en-1-yl]-8-[(2,6-difluorobenzyl)oxy]-2,6-dimethylimidazo[1,2-a]pyridine-3-carboxamide] and `Cc1cc(OCc2c(F)cccc2F)c2nc(C)c(C(=O)NCCN(CC(F)F)C3CC3)n2c1` [Example 164, N-{2-[cyclopropyl(2,2-difluoroethyl)amino]ethyl}-8-[(2,6-difluorobenzyl)oxy]-2,6-dimethylimidazo[1,2-a]-pyridine-3-carboxamide] are the same in “MEC (minimal effective concentration)” value: 0.10 µM for the first, 0.10 µM for the second.

Compared with `COCC(C)(N)CNC(=O)c1c(C)nc2c(OCc3c(F)cccc3F)cccn12` (single isomer, unassigned) [Example 215, ent-N-(2-Amino-3-methoxy-2-methylpropyl)-8-[(2,6-difluorobenzyl)oxy]-2-methylimidazo[1,2-a]-pyridine-3-carboxamide], `COc1cccc(C(CN)NC(=O)c2c(C)nc3c(OCc4c(F)cccc4F)cc(C)cn23)c1` (racemic) [Example 382, rac-N-[2-amino-1-(3-methoxyphenyl)ethyl]-8-[(2,6-difluorobenzyl)oxy]-2,6-dimethylimidazo[1,2-a]pyridine-3-carboxamide] is 3.3-fold lower in “MEC (minimal effective concentration)” value: 1.00 µM for the first, 0.30 µM for the second.

In the case of `C=Cc1cccc(C(CN)NC(=O)c2c(C)nc3c(OCc4c(F)cccc4F)cc(C)cn23)c1` (racemic) [Example 385, rac-N-[2-amino-1-(3-ethenylphenyl)ethyl]-8-[(2,6-difluorobenzyl)oxy]-2,6-dimethylimidazo[1,2-a]pyridine-3-carboxamide], the “MEC (minimal effective concentration)” value is reported as 1.00 µM.
